Assay results reported in ChEMBL document CHEMBL1201862, “PubChem BioAssay data set” (2004).
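Dose response: 5 concentrations. Exposure: 48 h. Format: 96-well plates. Endpoint: linear interpolation; highest concentration if not reached. GI50 = concentration required for 50% inhibition of growth.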 Calls of active or inactive are those of the source. Cut-off read from the data, not from the text of the source: active = GI50 up to about 1.1 µM and inactive = higher.

How the values were obtained:
Experiment in all cases: DTP human tumour cell line panel, 48 h
A498 = system: A498
A549 = system: A549
CAKI-1 = system: CAKI-1
DMS-273 = system: DMS-273
EKVX = system: EKVX
HOP-18 = system: HOP-18
MCF7 = system: MCF7
NCI-H522 = system: NCI-H522
RPMI-8226 = system: RPMI-8226
RXF 393 = system: RXF 393
SK-MEL-28 = system: SK-MEL-28
SK-MEL-2 = system: SK-MEL-2
SNB-75 = system: SNB-75
XF498 = system: XF498
ACHN = system: ACHN
M14 = system: M14
SR = system: SR
TK-10 = system: TK-10
BT-549 = system: BT-549
DU-145 = system: DU-145

Measured: GI50

Cc1ccc(OP2(=O)Oc3ccc4ccccc4c3CN2c2ccc(Cl)cc2)cc1C (configuration not stated)
inactive: A498 > 100 µM | A549 > 100 µM | CAKI-1 > 100 µM | DMS-273 > 100 µM | EKVX > 100 µM | HOP-18 > 100 µM | MCF7 > 100 µM | NCI-H522 > 100 µM | RPMI-8226 > 100 µM | RXF 393 > 100 µM | SK-MEL-28 > 100 µM | SK-MEL-2 > 100 µM | SNB-75 > 100 µM | XF498 > 100 µM

Cc1ccccc1NC(=O)C(=O)C(C1OC(=O)c2ccccc21)[N+](=O)[O-] (configuration not stated)
inactive: A498 > 100 µM | A549 > 100 µM | ACHN > 100 µM | CAKI-1 > 100 µM | DMS-273 > 100 µM | EKVX > 100 µM | M14 > 100 µM | NCI-H522 56.9 µM | RPMI-8226 > 100 µM | RXF 393 > 100 µM | SK-MEL-28 > 100 µM | SK-MEL-2 > 100 µM | SNB-75 > 100 µM | SR > 100 µM | TK-10 > 100 µM | XF498 > 100 µM

CSCSCC(N)CO.Cc1[nH]c(=O)[nH]c(=O)c1/C=C/C(=O)O
inactive: A498 > 625 µM | A549 > 625 µM | CAKI-1 624 µM | DMS-273 > 625 µM | EKVX > 625 µM | HOP-18 > 625 µM | MCF7 > 625 µM | NCI-H522 > 625 µM | RPMI-8226 > 625 µM | RXF 393 > 625 µM | SK-MEL-28 > 625 µM | SK-MEL-2 > 625 µM | SNB-75 447 µM | XF498 > 625 µM

C=CC1(NC(=O)c2ccccc2)CCC(C(C)(C)C)CC1 (configuration not stated)
inactive: A498 48.2 µM | A549 30.5 µM | DMS-273 32.2 µM | EKVX > 47.1 µM | HOP-18 47.5 µM | MCF7 30.8 µM | NCI-H522 30.8 µM | RPMI-8226 20.9 µM | RXF 393 49.3 µM | SK-MEL-28 42.6 µM | SK-MEL-2 25.2 µM | SNB-75 31.5 µM | XF498 > 43.1 µM

COc1ccccc1-c1cc(O)c2c(C)ccnc2n1
inactive: A498 27.6 µM | A549 43.7 µM | ACHN 28.4 µM | BT-549 7.1 µM | CAKI-1 33 µM | DU-145 41.2 µM | EKVX 37 µM | M14 42.4 µM | MCF7 26.5 µM | NCI-H522 15.8 µM | RPMI-8226 59.8 µM | RXF 393 29.7 µM | SK-MEL-28 84.3 µM | SK-MEL-2 26.7 µM | SNB-75 12.9 µM | SR 14.2 µM | TK-10 > 100 µM

O=[N+]([O-])c1cnccc1-n1nnc2ccccc21
inactive: A498 28.3 µM | A549 25.1 µM | DMS-273 14.1 µM | EKVX 22 µM | HOP-18 14.1 µM | MCF7 13.4 µM | NCI-H522 16 µM | RPMI-8226 32.9 µM | RXF 393 17.3 µM | SK-MEL-28 19.9 µM | SK-MEL-2 16.5 µM | SNB-75 15.2 µM | XF498 13.8 µM

O=C1OCc2cccc3c2-c2c1cccc2C(=O)OC3
inactive: CAKI-1 > 100 µM | EKVX > 100 µM | HOP-18 > 100 µM | M14 > 100 µM | RPMI-8226 > 100 µM | RXF 393 > 100 µM | SK-MEL-28 > 100 µM | SK-MEL-2 > 100 µM | SR > 100 µM | TK-10 > 100 µM

COC(=O)N1CC2C3C4CC(C(c5ccccc5)=C4c4ccccc4)C3C21 (configuration not stated)
inactive: A549 18 µM | ACHN 23.3 µM | BT-549 16 µM | CAKI-1 12.6 µM | DU-145 14.7 µM | EKVX 13.2 µM | M14 26.8 µM | MCF7 20 µM | RPMI-8226 8.59 µM | RXF 393 17.7 µM | SK-MEL-28 19.9 µM | SK-MEL-2 19.8 µM | SNB-75 21.8 µM | SR 11.1 µM | TK-10 15.8 µM
